The target in this assay is SARS-CoV-2 M^pro (Severe acute respiratory syndrome coronavirus 2, UniProt P0DTD1). Description: FRET protease enzymatic inhibition assay. The assay is classed as biochemical. To be noted: for M^pro Inhibition rate at 50 μM: compound at 50 μM, FRET assay; for inhibition at 50 µM: read-out: M^pro Inhibition rate at 50 μM.

For the compound `COc1c(O)cc2oc(-c3ccc(O)cc3)cc(=O)c2c1O` [Compound 2, Hispidulin], the “M^pro Inhibition rate at 50 μM” value is “reduced rates of inhibition”.
The same measure, in the same setting: next, `COc1ccc(-c2cc(=O)c3c(O)c(OC)c(O)cc3o2)cc1` [Compound 3, Pectolinarigenin]: “reduced rates of inhibition”.
For `O=c1cc(-c2ccc(O)cc2)oc2cc(O)c(O)c(O)c12` [Compound 1, Scutellarein], the inhibition at 50 µM was determined as 102%.
Consider `COc1ccc(-c2cc(=O)c3c(OC)c(OC)c(OC)cc3o2)cc1` [Compound 7, 5,6,7,4'-tetramethoxyflavone], for which the “M^pro Inhibition rate at 50 μM” value is reported as “reduced rates of inhibition”.
Take `COc1ccc(-c2cc(=O)c3c(OC)c(O)c(O)cc3o2)cc1` [Compound 5, 6,7-dihydroxy-5-methoxy-2-(4-methoxyphenyl) chromone]: the IC50 was found to be 16.7 ± 2.09 µM.
In the case of `O=c1cc(-c2ccccc2)oc2cc(O)c(O)c(O)c12` [Compound 8, Baicalein, reference compound], the inhibition at 50 µM is 103%.
As for `COc1ccc(-c2cc(=O)c3c(O)c(OC)c(OC)cc3o2)cc1` [Compound 6, Salvigenin], the “M^pro Inhibition rate at 50 μM” value is “reduced rates of inhibition”.

As a reminder, the inhibition is the drop in the measured response relative to a control, in per cent. As usually defined, the IC50 is the concentration needed to halve the response being measured.
